Measured values from PMC8881610 (Nature Communications, 2022).
Changes are numbered by the printed parent chain.

Columns and labels:
Test in all cases: cAMP accumulation assay (LANCE Ultra cAMP kit), GIPR WT, mutant or modified constructs
Type in all cases: cell-based
Parameters in all cases: acylated tirzepatide to the full-length or modified; Flag; expressed in transfected cells; host or cells: HEK293T
GIPR [1] = target: T1, GIPR (Homo sapiens, UniProt P48546, E135A); conditions: GIPR E135A, HEK293T
T1 sequence (P48546 22-466 E135A): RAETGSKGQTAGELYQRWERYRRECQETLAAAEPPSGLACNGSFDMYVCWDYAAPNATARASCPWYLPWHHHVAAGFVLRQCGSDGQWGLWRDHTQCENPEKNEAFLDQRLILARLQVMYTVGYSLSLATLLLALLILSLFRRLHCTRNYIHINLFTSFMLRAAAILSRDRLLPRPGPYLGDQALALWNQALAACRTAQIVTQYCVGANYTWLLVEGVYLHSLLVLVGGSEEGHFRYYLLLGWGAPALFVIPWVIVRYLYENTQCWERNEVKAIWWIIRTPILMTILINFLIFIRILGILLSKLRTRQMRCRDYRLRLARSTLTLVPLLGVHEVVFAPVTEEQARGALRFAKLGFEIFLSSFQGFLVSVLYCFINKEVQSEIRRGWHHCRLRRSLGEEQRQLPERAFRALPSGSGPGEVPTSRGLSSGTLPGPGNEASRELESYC
Summary of the method: (§1)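 HEK293T cells transiently transfected with human GIPR WT or mutant constructs (pcDNA3.1), used after 24 h. The cells were stimulated with peptide agonists for 40 min at RT in HBSS with 5 mM HEPES, 0.1% BSA or casein, and 0.5 mM IBMX. cAMP was read by LANCE Ultra TR-FRET (Eu-cAMP tracer/ULight anti-cAMP, 1 h RT, 620/650 nm).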

GIPR [2] = target: T2, GIPR (Homo sapiens, UniProt P48546, F127A); conditions: GIPR F127A, HEK293T
T2 sequence (P48546 22-466 F127A): T1 sequence (P48546 22-466 E135A) with F106A, A114E
Summary of the method: as §1

GIPR [3] = target: T3, GIPR (Homo sapiens, UniProt P48546, Q285A); conditions: GIPR Q285A, HEK293T
T3 sequence (P48546 22-466 Q285A): T1 sequence (P48546 22-466 E135A) with A114E, Q264A
Summary of the method: as §1

[4] = read-out: cAMP pEC50 (converted)

## CCCCCCCCCCCCCCCC(=O)N[C@@H](CCC(=O)NCCCC[C@H](NC(=O)[C@H](CC(=O)O)NC(=O)[C@H](CO)NC(=O)[C@@H](NC(=O)[C@H](Cc1ccccc1)NC(=O)[C@@H](NC(=O)CNC(=O)[C@H](CCC(N)=O)NC(=O)C(C)(C)NC(=O)[C@@H](N)Cc1c[nH]cn1)[C@@H](C)O)[C@@H](C)O)C(=O)N[C@@H](CO)C(=O)N[C@@H](CCCCN)C(=O)N[C@@H](Cc1ccc(O)cc1)C(=O)N[C@@H](CC(C)C)C(=O)N[C@@H](CC(=O)O)C(=O)N[C@@H](CCC(=O)O)C(=O)N[C@@H](CCCNC(=N)N)C(=O)N[C@@H](C)C(=O)N[C@@H](C)C(=O)N[C@@H](CCC(N)=O)C(=O)N[C@@H](CC(=O)O)C(=O)N[C@@H](Cc1ccccc1)C(=O)N[C@H](C(=O)N[C@@H](CCC(N)=O)C(=O)N[C@@H](Cc1c[nH]c2ccccc12)C(=O)N[C@@H](CC(C)C)C(=O)N[C@@H](CC(C)C)C(=O)N[C@@H](CC(=O)O)C(=O)NCC(=O)NCC(=O)N1CCC[C@H]1C(=O)N[C@@H](CO)C(=O)N[C@@H](CO)C(=O)NCC(=O)N[C@@H](C)C(=O)N1CCC[C@H]1C(=O)N1CCC[C@H]1C(=O)N1CCC[C@H]1C(=O)N[C@@H](CO)C(N)=O)C(C)C)C(=O)O [Peptide 20]
GIPR [1]; [4]
  EC50: 0.0427 nM
GIPR [1]; HEK-293T
  Emax: 100 ± 1.44%
GIPR [2]; [4]
  EC50: 0.00457 nM
GIPR [2]; HEK-293T
  Emax: 100 ± 1.64%
GIPR [3]; [4]
  EC50: 0.0417 nM
GIPR [3]; HEK-293T
  Emax: 97.6 ± 1.37%
